Assays:
Format in all cases: in vivo
[1] = test system: Green Leafhopper (Nephotettix sp.); assay: Green leafhopper root uptake assay on rice; settings: 6-day observation
Protocol: (§1) These assays were designed to evaluate the possibility of using compounds of the invention for applications such as nursing trays, transplanting water and/or irrigation. Root-uptake systemic assays were performed on both brown planthopper and green leafhopper. Four-week-old rice seedlings were submerged in 3-cm depth of water in the bottom portion (high 5 cm, diameter 3 cm) of a 2-part glass cylinder (high 18 cm, diameter 3 cm). A metal screen was used to hold the seedlings within the bottom portion. Scotch tape was used to bind the two portions of the cylinder after setting up the seedlings. A metal cap was used to cover the cylinder. There were 4 cylinders for each treatment. The test compound was dissolved in acetone to make a 10,000 ppm stock solution which was incorporated at final test concentrations of 5, 2, 1, 0.5, 0.25 ppm in the water in which rice seedlings were submerged. Five laboratory-reared 3rd instar nymphs of brown planthopper or green leafhopper were introduced into each cylinder 3 hr after insecticide application. The treated test units were kept in a growth chamber with conditions set as followings: Temperature 28±0.5° C.; Relative humidity 70±0.5%; Photoperiod 14 hr light: […].

[2] = test system: Eastern Subterranean Termite (Reticulitermes flavipes); assay: Eastern subterranean termite filter paper assay
Protocol: Activity of Compound (2) was evaluated for its activity on Eastern subterranean termite. Technical material of the test compound was formulated in acetone on a wt/wt basis to deliver 1000, 500, 200, 50, 12.5, 3.12 and 0.78 ppm to 42.5 mm Whatman No. 1 filter papers per 200 ul of pipetted solution. Each test concentration was applied to six filter papers (6 reps). Six acetone-only control units and six DI water-only control units were also prepared. The filter papers were dried overnight in the fume hood before they were placed into 60×15 mm Fisher Brand plastic Petri dishes. A volume of 200 ul DI water was pipetted onto each Filter paper at the time of test set-up, just prior to infesting with termites. Ten worker termites were added to each Petri dish and covered. The infested Petri dishes were put in the laboratory Conviron at 28° C. and 60% RH. Termite mortality was recorded at 1, 2, 4, 7, and 10 days after infestation (DAI). Throughout the duration of the test, an average of 150 ul of DI water was added daily to the filter papers to retain moisture.

[3] = test system: Bird Cherry-Oat Aphid (Rhopalosiphum padi); assay: Bird cherry-oat aphid seed coating assay on wheat; settings: 1.34 mg/seed, 10% SC formulation, 4 days after infestation
Protocol: Twenty spring wheat (Triticum aestivum var. Yuma) seeds were placed on a waxed paper. A pipette was used to apply a 10% SC formulation of the test compound to each seed. Two application of 6.7 μl each were applied to a seed, waiting until the seed was air-dried between applications. The total amount of active ingredient applied to each seed was 1.34 mg. All coated seeds are planted into 3 inch pots containing greenhouse metro mix, with 4 seeds used in each pot. An appropriate number of untreated seeds was also planted for control. The pots are placed on a California cart and moved into a greenhouse for initial and subsequent sub-watering. When the plants had germinated and grown to the 1-2 leaf unfurled stage, they were infested with bird cherry-oat aphid. The infested plants were held in an environmental chamber (23° C., 40% RH, 16 hr light: 8 hr dark) for 4 days before an assessment of aphid populations was conducted. Calculations for % Control are based on a corrected basis compared to the populations on the untreated controls.
Corrected % Control=100*(X−Y)/X • where X=No. of live aphids on untreated plants • Y=No. of live aphids on treated plants

[4] = test system: Brown Planthopper (Nilaparvata lugens); assay: Brown planthopper root uptake assay on rice; settings: 6-day observation
Protocol: as §1

## CC(c1ccc(Cl)nc1)S(C)(=O)=NC#N (stereo not shown) [Compound 2, [1-(6-chloropyridin-3-yl)ethyl](methyl)oxido-λ^4-sulfanylidenecyanamide]
[1]; 0.25 ppm in water
  % Control, root uptake systemic Green leafhopper: 45%
[1]; 0.50 ppm in water
  % Control, root uptake systemic Green leafhopper: 65%
[1]; 1.00 ppm in water
  % Control, root uptake systemic Green leafhopper: 100%
[1]; 2.00 ppm in water
  % Control, root uptake systemic Green leafhopper: 100%
[1]; 5.00 ppm in water
  % Control, root uptake systemic Green leafhopper: 100%
[2]; 1 DAI
  mortality at 0.78 ppm: 0%
  mortality at 3.13 ppm: 0%
  mortality at 12.5 ppm: 15%
  mortality at 50 ppm: 15%
  mortality at 200 ppm: 37%
  mortality at 500 ppm: 38%
  mortality at 1000 ppm: 47%
[2]; 2 DAI
  mortality at 0.78 ppm: 2%
  mortality at 3.13 ppm: 3%
  mortality at 12.5 ppm: 32%
  mortality at 50 ppm: 27%
  mortality at 200 ppm: 58%
  mortality at 500 ppm: 60%
  mortality at 1000 ppm: 68%
[2]; 4 DAI
  mortality at 0.78 ppm: 2%
  mortality at 3.13 ppm: 43%
  mortality at 12.5 ppm: 60%
  mortality at 50 ppm: 67%
  mortality at 200 ppm: 87%
  mortality at 500 ppm: 93%
  mortality at 1000 ppm: 92%
[2]; 7 DAI
  mortality at 0.78 ppm: 7%
  mortality at 3.13 ppm: 60%
  mortality at 12.5 ppm: 63%
  mortality at 50 ppm: 92%
  mortality at 200 ppm: 97%
  mortality at 500 ppm: 100%
  mortality at 1000 ppm: 100%
[2]; 10 DAI
  mortality at 0.78 ppm: 10%
  mortality at 3.13 ppm: 60%
  mortality at 12.5 ppm: 63%
  mortality at 50 ppm: 93%
  mortality at 200 ppm: 100%
  mortality at 500 ppm: 100%
  mortality at 1000 ppm: 100%
[3]
  % Control, seed coating systemic: 100%
[4]; 0.25 ppm in water
  % Control, root uptake systemic Brown planthopper: 55%
[4]; 0.50 ppm in water
  % Control, root uptake systemic Brown planthopper: 80%
[4]; 1.00 ppm in water
  % Control, root uptake systemic Brown planthopper: 100%
[4]; 2.00 ppm in water
  % Control, root uptake systemic Brown planthopper: 100%
[4]; 5.00 ppm in water
  % Control, root uptake systemic Brown planthopper: 100%

Reference: patent US20080108665A1, “Use of N-substituted sulfoximines for control of invertebrate pests” (priority 2006, published 2008)
